The data set in a line: Aqueous solubility of apixaban. The data set is classed as physicochemical. The following applies: aqueous medium, aqueous buffer; room temperature, pH 6.8.

`COc1ccc(-n2nc(C(N)=O)c3c2C(=O)N(c2ccc(N4CCCCC4=O)cc2)CC3)cc1` [apixaban, 1-(4-methoxyphenyl)-7-oxo-6-[4-(2-oxopiperidin-1-yl)phenyl]-4,5,6,7-tetrahydro-1H-pyrazolo[3.4-c]pyridine-3-carboxamide]: the solubility (as a rule, the concentration that dissolves in the medium under given conditions) was below 1 µg/mL.

The record behind these values is patent US20170202826A1, “DOSAGE FORMS OF APIXABAN” (Pfizer Inc., priority 2009, published 2017).
